{"source": "patent EP0847397B1", "about": "“WATER-SOLUBLE C-RING ANALOGUES OF 20 (S)-CAMPTOTHECIN” (DR. REDDY'S RESEARCH FOUNDATION, priority 1996, dated 1997)", "key": {"topoisomerase I": {"target": "topoisomerase I (Homo sapiens, UniProt P11387)", "sequence (P11387 whole entry)": "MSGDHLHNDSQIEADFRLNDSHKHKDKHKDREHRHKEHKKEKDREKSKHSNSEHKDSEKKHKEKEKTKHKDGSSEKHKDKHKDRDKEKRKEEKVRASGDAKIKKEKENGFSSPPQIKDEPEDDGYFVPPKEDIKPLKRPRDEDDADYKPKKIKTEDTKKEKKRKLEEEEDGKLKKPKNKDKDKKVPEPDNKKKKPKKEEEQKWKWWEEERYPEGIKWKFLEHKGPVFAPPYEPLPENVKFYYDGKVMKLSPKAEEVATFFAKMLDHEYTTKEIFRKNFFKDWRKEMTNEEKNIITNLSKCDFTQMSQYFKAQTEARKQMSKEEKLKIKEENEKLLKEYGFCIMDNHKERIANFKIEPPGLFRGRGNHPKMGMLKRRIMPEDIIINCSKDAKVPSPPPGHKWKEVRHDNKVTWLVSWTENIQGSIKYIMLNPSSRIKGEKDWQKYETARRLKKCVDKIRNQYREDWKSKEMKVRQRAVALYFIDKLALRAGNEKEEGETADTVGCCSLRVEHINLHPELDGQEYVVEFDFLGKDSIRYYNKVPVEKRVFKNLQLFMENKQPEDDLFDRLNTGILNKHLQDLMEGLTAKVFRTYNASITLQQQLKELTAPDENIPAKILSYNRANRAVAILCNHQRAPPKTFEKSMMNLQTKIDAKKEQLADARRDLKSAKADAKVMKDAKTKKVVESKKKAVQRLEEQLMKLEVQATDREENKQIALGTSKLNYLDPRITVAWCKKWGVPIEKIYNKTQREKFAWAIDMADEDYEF", "settings": "result in words; cited from earlier work"}, "[1]": {"settings": "compared with 20(RS)-camptothecin of the formula 8; cited from earlier work"}, "MOLT 4": {"system": "MOLT 4", "assay": "NCI in vitro 60 human tumor cell line assay", "type": "cell-based", "settings": "MOLT 4, […], 48h, read-out: Total Growth Inhibition (TGI)", "method": "(§1) Each test compound was screened against a battery of 60 human cell lines obtained from eight organs. In a typical procedure, the cell suspensions that were diluted according to the particular cell type and the expected target cell density (5000-40,000 cells per well based on cell growth characteristics) were added into 96-well microtiter plates. Inoculates were allowed a preincubation period of 24h at 37°C. for stabilization. Dilutions at twice the intended test concentrations were added at time zero in 100-µl aliquots to microtiter plate wells. Usually test compounds were evaluated at five 10-fold dilutions. The highest well concentration used in the test is 10^-4M. The cells are then incubated in the presence of drug (the test compound) for further 48h in 5% CO2 atmosphere and 100% humidity. At the end of this time, the adherent cells are fixed to the plate by means of trichloroacetic acid, and after a number of washes, the cell layer is treated with the protein stain Sulforhodamine B. The optical density which is proportional to protein mass, is then read by automated spectrophotometric plate readers at a wavelength of 515 nm. Readings are transferred to a microcomputer and final reports are generated using especially developed software."}, "SF 295": {"system": "SF 295", "assay": "NCI in vitro 60 human tumor cell line assay", "type": "cell-based", "settings": "SF 295, CNS, 48h, read-out: Total Growth Inhibition (TGI)", "method": "as §1"}, "U 251": {"system": "U 251", "assay": "NCI in vitro 60 human tumor cell line assay", "type": "cell-based", "settings": "U 251, CNS, 48h, read-out: Total Growth Inhibition (TGI)", "method": "as §1"}, "MCF 7": {"system": "MCF 7", "assay": "NCI in vitro 60 human tumor cell line assay", "type": "cell-based", "settings": "MCF7, MCF 7, BREAST, 48h, read-out: Total Growth Inhibition (TGI)", "method": "as §1"}, "HT 29": {"system": "HT 29", "assay": "NCI in vitro 60 human tumor cell line assay", "type": "cell-based", "method": "as §1"}, "EKVX": {"system": "EKVX", "assay": "NCI in vitro 60 human tumor cell line assay", "type": "cell-based", "settings": "NSLC, 48h, read-out: Total Growth Inhibition (TGI)", "method": "as §1"}, "H 460": {"system": "H 460", "assay": "NCI in vitro 60 human tumor cell line assay", "type": "cell-based", "settings": "H 460, NSLC, 48h", "method": "as §1"}, "H 322M": {"system": "H 322M", "assay": "NCI in vitro 60 human tumor cell line assay", "type": "cell-based", "settings": "NCI-H322M, H 322M, NSLC, 48h, read-out: Total Growth Inhibition (TGI)", "method": "as §1"}, "HCC 2998": {"system": "HCC 2998", "assay": "NCI in vitro 60 human tumor cell line assay", "type": "cell-based", "settings": "HCC 2998, COLON CANCER, 48h", "method": "as §1"}, "HCT 15": {"system": "HCT 15", "assay": "NCI in vitro 60 human tumor cell line assay", "type": "cell-based", "settings": "HCT 15, COLON CANCER, 48h, read-out: Total Growth Inhibition (TGI)", "method": "as §1"}, "SK OV3": {"system": "SK OV3", "assay": "NCI in vitro 60 human tumor cell line assay", "type": "cell-based", "settings": "SK-OV-3, SK OV3, OVARIAN, 48h, read-out: Total Growth Inhibition (TGI)", "method": "(§2) Each test compound was screened against a battery of 60 human cell lines obtained from eight organs. In a typical procedure, the cell suspensions that were diluted according to the particular cell type and the expected target cell density (5000-40,000 cells per well based on cell growth characteristics) were added into 96-well microtiter plates. Inoculates were allowed a preincubation period of 24h at 37°C. for stabilization. Dilutions at twice the intended test concentrations were added at time zero in 100-µl aliquots to microtiter plate wells. Usually test compounds were evaluated at five 10-fold dilutions. The highest well concentration used in the test is 10^-4M. The cells are then incubated in the presence of drug (the test compound) for further 48h in 5% CO2 atmosphere and 100% humidity. At the end of this time, the adherent cells are fixed to the plate by means of trichloroacetic acid, and after a number of washes, the cell layer is treated with the protein stain Sulforhodamine B. The optical density which is proportional to protein mass, is then read by automated spectrophotometric plate readers at a wavelength of 515 nm."}, "OVCAR 8": {"system": "OVCAR 8", "assay": "NCI in vitro 60 human tumor cell line assay", "type": "cell-based", "settings": "OVCAR 8, OVARIAN, 48h, read-out: Total Growth Inhibition (TGI)", "method": "as §2"}, "UO 31": {"system": "UO 31", "assay": "NCI in vitro 60 human tumor cell line assay", "type": "cell-based", "settings": "UO 31, RENAL, 48h, read-out: Total Growth Inhibition (TGI)", "method": "as §1"}, "SF 268": {"system": "SF 268", "assay": "NCI in vitro 60 human tumor cell line assay", "type": "cell-based", "settings": "SF-268, 48 h, read-out: Total Growth Inhibition (TGI)", "method": "as §2"}, "HOP 62": {"system": "HOP 62", "assay": "NCI in vitro 60 human tumor cell line assay", "type": "cell-based", "settings": "HOP 62, NSLC, 48h, read-out: Total Growth Inhibition (TGI)"}, "HOP 92": {"system": "HOP 92", "assay": "NCI in vitro 60 human tumor cell line assay", "type": "cell-based", "settings": "HOP 92, NSLC, 48h, read-out: Total Growth Inhibition (TGI)"}, "H 226": {"system": "H 226", "assay": "NCI in vitro 60 human tumor cell line assay", "type": "cell-based", "settings": "NCI-H226, H 226, NSLC, 48h, read-out: Total Growth Inhibition (TGI)", "method": "as §1"}, "H 23": {"system": "H 23", "assay": "NCI in vitro 60 human tumor cell line assay", "type": "cell-based", "settings": "NCI-H23, H 23, NSLC, 48h, read-out: Total Growth Inhibition (TGI)", "method": "as §1"}, "H 522": {"system": "H 522", "assay": "NCI in vitro 60 human tumor cell line assay", "type": "cell-based", "settings": "NCI-H522, H 522, NSLC, 48h, read-out: Total Growth Inhibition (TGI)", "method": "as §1"}, "COLO 205": {"system": "COLO 205", "assay": "NCI in vitro 60 human tumor cell line assay", "type": "cell-based", "settings": "COLO 205, COLON CANCER, 48h, read-out: Total Growth Inhibition (TGI)", "method": "as §1"}, "HCT 116": {"system": "HCT 116", "assay": "NCI in vitro 60 human tumor cell line assay", "type": "cell-based", "settings": "HCT 116, COLON CANCER, 48h, read-out: Total Growth Inhibition (TGI)"}, "KM 12": {"system": "KM 12", "assay": "NCI in vitro 60 human tumor cell line assay", "type": "cell-based", "settings": "KM12, KM 12, COLON CANCER, 48h, read-out: Total Growth Inhibition (TGI)", "method": "as §1"}, "MCF 7/ ADR": {"system": "MCF 7/ ADR", "assay": "NCI in vitro 60 human tumor cell line assay", "type": "cell-based", "settings": "MCF 7/ ADR, BREAST, 48h", "method": "as §1"}, "MDA-MB-435": {"system": "MDA-MB-435", "assay": "NCI in vitro 60 human tumor cell line assay", "type": "cell-based", "settings": "MDA-MB-435, BREAST, 48h, read-out: Total Growth Inhibition (TGI)"}, "BT 549": {"system": "BT 549", "assay": "NCI in vitro 60 human tumor cell line assay", "type": "cell-based", "settings": "BT 549, BREAST, 48h, read-out: Total Growth Inhibition (TGI)", "method": "as §1"}, "T 47D": {"system": "T 47D", "assay": "NCI in vitro 60 human tumor cell line assay", "type": "cell-based", "settings": "T47D, T 47D, BREAST, 48h, read-out: Total Growth Inhibition (TGI)", "method": "as §1"}, "786-O": {"system": "786-O", "assay": "NCI in vitro 60 human tumor cell line assay", "type": "cell-based", "settings": "786-0, 786-O, RENAL CANCER, 48h, read-out: Total Growth Inhibition (TGI)", "method": "as §2"}, "A 498": {"system": "A 498", "assay": "NCI in vitro 60 human tumor cell line assay", "type": "cell-based", "settings": "A498, A 498, RENAL CANCER, 48h, read-out: Total Growth Inhibition (TGI)", "method": "as §1"}, "ACHN": {"system": "ACHN", "assay": "NCI in vitro 60 human tumor cell line assay", "type": "cell-based", "settings": "RENAL CANCER, 48h, read-out: Total Growth Inhibition (TGI)", "method": "as §1"}, "CAKI": {"system": "CAKI", "assay": "NCI in vitro 60 human tumor cell line assay", "type": "cell-based", "settings": "CAKI, RENAL CANCER, 48h, read-out: Total Growth Inhibition (TGI)", "method": "as §1"}, "RXF 393": {"system": "RXF 393", "assay": "NCI in vitro 60 human tumor cell line assay", "type": "cell-based", "settings": "RXF 393, RENAL CANCER, 48h, read-out: Total Growth Inhibition (TGI)", "method": "as §1"}, "SN12C": {"system": "SN12C", "assay": "NCI in vitro 60 human tumor cell line assay", "type": "cell-based", "settings": "RENAL CANCER, 48h, read-out: Total Growth Inhibition (TGI)", "method": "as §1"}, "[2]": {"assay": "NCI in vitro 60 human tumor cell line assay", "type": "cell-based", "settings": "HCT 166, COLON CANCER, 48h, read-out: Total Growth Inhibition (TGI)", "method": "as §1"}, "MCF7 / ADR / RES": {"system": "MCF7 / ADR / RES", "assay": "NCI in vitro 60 human tumor cell line assay", "type": "cell-based", "settings": "MCF7 / ADR / RES, BREAST CANCER, 48h, read-out: Total Growth Inhibition (TGI)", "method": "as §1"}}, "data": [{"smiles": "C=C1C(=O)OCc2c1cc1n(c2=O)Cc2c-1nc1ccc(O)cc1c2CC", "note": "[formula 9, 18-noranhydrocamptothecin analogue]", "values": [{"measurement": "inhibition of topoisomerase I activity", "setting": "topoisomerase I", "value": "potent camptothecin like inhibition of topoisomerase I activity"}]}, {"smiles": "CCc1c2c(nc3ccc(OC)cc13)-c1cc3c(c(=O)n1C2)COC(=O)[C@]3(N)CC", "note": "[formula 7, 7-ethyl-10-methoxycamptothecin derivative]", "values": [{"measurement": "in vivo antitumor activity", "setting": "[1]", "value": "increased in vivo antitumor activity"}]}, {"smiles": "CC[C@@]1(O)C(=O)OCc2c1cc1n(c2=O)Cc2cc3c(CN(C)C)c(O)ccc3nc2-1", "note": "[TOPOTECAN, topotecan, reference compound]", "values": [{"measurement": "IC (TGI)", "setting": "MOLT 4", "value": 1200, "unit": "nM"}, {"measurement": "IC (TGI)", "setting": "SF 295", "value": 2180, "unit": "nM"}, {"measurement": "IC (TGI)", "setting": "U 251", "value": 2810, "unit": "nM"}, {"measurement": "IC (TGI)", "setting": "MCF 7", "value": 100000, "unit": "nM"}, {"measurement": "Total Growth Inhibition (TGI)", "setting": "HT 29", "value": 100, "unit": "μm"}, {"measurement": "IC (TGI)", "setting": "HT 29; Homo sapiens, HT-29, 48 h, read-out: Total Growth Inhibition (TGI)", "value": "> 100000", "unit": "nM"}, {"measurement": "IC (TGI)", "setting": "EKVX", "value": 100000, "unit": "nM"}, {"measurement": "Total Growth Inhibition (TGI)", "setting": "H 460", "value": 1.20, "unit": "μm"}, {"measurement": "IC (TGI)", "setting": "H 460; Homo sapiens, NCI-H460, read-out: Total Growth Inhibition (TGI)", "value": 1200, "unit": "nM"}, {"measurement": "IC (TGI)", "setting": "H 322M", "value": 16900, "unit": "nM"}, {"measurement": "Total Growth Inhibition (TGI)", "setting": "HCC 2998", "value": 15.80, "unit": "μm"}, {"measurement": "IC (TGI)", "setting": "HCC 2998; Homo sapiens, read-out: Total Growth Inhibition (TGI)", "value": 15800, "unit": "nM"}, {"measurement": "IC (TGI)", "setting": "HCT 15", "value": 44600, "unit": "nM"}, {"measurement": "IC (TGI)", "setting": "SK OV3", "value": 5120, "unit": "nM"}, {"measurement": "IC (TGI)", "setting": "OVCAR 8", "value": 18200, "unit": "nM"}, {"measurement": "IC (TGI)", "setting": "UO 31", "value": 2510, "unit": "nM"}, {"measurement": "IC (TGI)", "setting": "SF 268", "value": 56000, "unit": "nM"}, {"measurement": "IC (TGI)", "setting": "HOP 62", "value": 40, "unit": "nM"}, {"measurement": "IC (TGI)", "setting": "HOP 92", "value": 7900, "unit": "nM"}, {"measurement": "IC (TGI)", "setting": "H 226", "value": 11000, "unit": "nM"}, {"measurement": "IC (TGI)", "setting": "H 23", "value": 870, "unit": "nM"}, {"measurement": "IC (TGI)", "setting": "H 522", "value": 4160, "unit": "nM"}, {"measurement": "IC (TGI)", "setting": "COLO 205", "value": 7940, "unit": "nM"}, {"measurement": "IC (TGI)", "setting": "HCT 116", "value": 2510, "unit": "nM"}, {"measurement": "IC (TGI)", "setting": "KM 12", "value": 6450, "unit": "nM"}, {"measurement": "IC (TGI)", "setting": "MCF 7/ ADR; Homo sapiens, NCI/ADR-RES, read-out: Total Growth Inhibition (TGI)", "value": 1500, "unit": "nM"}, {"measurement": "Total Growth Inhibition (TGI)", "setting": "MCF 7/ ADR", "value": 1.5, "unit": "μm"}, {"measurement": "IC (TGI)", "setting": "MDA-MB-435", "value": 2500, "unit": "nM"}, {"measurement": "IC (TGI)", "setting": "BT 549", "value": "> 100000", "unit": "nM"}, {"measurement": "IC (TGI)", "setting": "T 47D", "value": 1800, "unit": "nM"}, {"measurement": "IC (TGI)", "setting": "786-O", "value": 120, "unit": "nM"}, {"measurement": "IC (TGI)", "setting": "A 498", "value": 1690, "unit": "nM"}, {"measurement": "IC (TGI)", "setting": "ACHN", "value": 280, "unit": "nM"}, {"measurement": "IC (TGI)", "setting": "CAKI", "value": 510, "unit": "nM"}, {"measurement": "IC (TGI)", "setting": "RXF 393", "value": 1410, "unit": "nM"}, {"measurement": "IC (TGI)", "setting": "SN12C", "value": 1580, "unit": "nM"}, {"measurement": "IC (TGI)", "setting": "[2]", "value": 2510, "unit": "nM"}, {"measurement": "IC (TGI)", "setting": "MCF7 / ADR / RES", "value": 1500, "unit": "nM"}]}]}
